Values of other authors, collected in US20140056804A1, “PHARMACEUTICAL COMPOUND WHICH INCLUDES CLINOPTILOLITE” (priority 2008, published 2014).

Conditions: NSAIDs such as naproxen

- patients with non-symptomatic mucosal breaks: ~80%
SMILES: COc1ccc2cc([C@H](C)C(=O)O)ccc2c1 [naproxen]
